Data: patent publication US7968294B2, “SLIT2 underexpression in metastatic prostate cancer” (The Regents of the University of Michigan, priority 2008, dated 2011)
“Also recorded” adds a separate entry of the source.

System: SLIT2 expression in prostate cancer cell lines
Test: QRT-PCR analysis of SLIT2 transcript after compound treatment
Assay type: cell-based, human
Conditions: normalized to GAPDH housekeeping gene, FIG. 4c-e, DU145 prostate cancer cell lines, 5 uM SAHA time-course in panel d

In the case of `Nc1nccc2c1ncn2C1C=C(CO)C(O)C1O` (centres unmarked) [DZNep], the “SLIT2 expression (transcript level)” value is reported as “Marked up-regulation”.

For `O=C(CCCCCCC(=O)Nc1ccccc1)NO` [SAHA], the “SLIT2 expression (transcript level)” value was “restore the expression level of SLIT2; also recorded: up-regulated”.
